Results reported in PMC6045410 (ACS Omega, 2017).

Target: FabG4 (β-ketoacyl CoA reductase, EC 1.1.1.100) (Mycobacterium tuberculosis, UniProt I6Y778)

COc1ccc(C(c2ccc(OCCN(C(C)C)C(C)C)cc2)c2cccs2)cc1 (racemic) [S-S006-830, diisopropyl-(2-{4-[(R,S)-(4-methoxy-phenyl)-thiophen-2-yl-methyl]-phenoxy}-ethyl)-amine (printed for the racemate S006-830)]
affinity pull-down on compound-linked agarose beads, 2-DE, LC-MS-MS: The pull-down of FabG4 by drug-affinity beads along with its overexpression by S-S006-830-resistant Mtb
